The assay relates to H. pylori. Kind of assay: therapeutic treatment in chronic H. pylori mouse infection model (cfu counts, cagL PCR). Type of assay: in vivo, C57B/L6 mice. Conditions: for reduction of colony-forming units (cfus) / bacterial loads in stomach: metronidazole 14.3 mg/kg/day, intragastric gavage. As for the experimental part:
6-8 weeks old specific pathogen-free C57B/L6 mice were obtained from Charles River Laboratories. They were acclimatized to the new surroundings for one week before starting the assays. For the whole duration of the experiment, mice had access to sterile chow and sterile water ad libitum. In week one of the experiment, H. pylori was administered at 3×10^8 bacteria per mouse per inoculum (100 µl) on two days with one day of break in between. The proof-of-principle treatment was started two weeks after the end of the inoculation week, assuming a stable infection at this time point. The mice were treated in separate groups (8-14 animals per group), as outlined in the results, with compound(s), antibiotic (metronidazole at 14.3 mg/kg/day), a combination of both antibiotic and compound (for concentrations, see Results), or mock-treated once daily over seven consecutive days by intra-gastric gavage. After the treatment week, the mice were kept for another two weeks under normal housing and feeding conditions with sterilized chow and sterile water ad libitum. At the end of the assay period (week seven), the mice were necropsied by cervical dislocation under CO2 anesthesia. The animal experiments were authorized under German federal law by the LAVES (Lower Saxony Government Authority).
Then, BL2 was further tested for therapeutic efficacy in a mouse model of chronic H. pylori infection (Fig. 5). Six groups of mice (10 mice per group in each of the four infected and/or treated groups, and six mice in both of the control groups) were established in this mouse treatment trial. For the treatment groups, mice were infected in week one (using ca. 3×10^8 bacteria per animal; Methods), and the chronic infection was manifested for two more weeks. The once-daily treatment (intragastric gavage) started in week four on seven consecutive days. For the treatment groups, three H. pylori-infected groups were evaluated in parallel. One dose of treatment was given daily.
Group one was treated with metronidazole (14.3 mg/kg/day) only, an established anti-H. pylori antibiotic. The antibiotic concentration corresponds to concentrations routinely used in human treatment. Group two was treated with metronidazole (dosed at 14.3 mg/kg/day) and BL2 (10 mg/kg/day) in combination, and group three received BL2 (10 mg/kg/day) only. In addition, one infected and mock-treated group was kept as positive control, and two mock-infected groups were set aside, one for administering BL2 only (10 mg/kg/day; microbiota compound control) and one which was mock-infected and mock-treated (microbiota null control).
The read-out of successful treatment was the reduction of colony-forming units (cfus) of bacteria in infected and treated mice, over infected, non-treated, mice, at the end of the experiment. […] All mice in the infected positive control group were colonized (both cfu counts and PCR-positive), although the cfu counts in three positive animals were rather low.

Setting [1] is: BL2 10 mg/kg/day, once daily, 7 days, versus infected control.

“Also recorded” adds a separate entry of the source.

`Cn1c(CSC(=N)N)c(Cl)c(=O)n1-c1ccccc1` [Active 2]: the “reduction of colony-forming units (cfus) / bacterial loads in stomach” value is “therapeutically effective; also recorded: significant activity in vivo; also recorded: significant therapeutic activity; also recorded: significantly effective in reducing bacterial loads” (BL2 10 mg/kg/day, once daily, 7 days, versus infected control, listed as BL2) and “therapeutically active” (BL2 10 mg/kg/day, once daily, 7 days, versus infected control, listed as active 2/BL2). Under setting [1], the “cfu counts in the antrum” value is given as “statistically significant reduction of cfu counts in the antrum”. The “cfus in the corpus” value under setting [1] is recorded as “trend towards reduced cfus”. For the setting “two weeks post-treatment, listed as BL2”, the “gene-specific (cagL) PCR signal in stomach homogenates” value is “strong reduction of gene-specific PCR signal; also recorded: below detection levels”.

The values above are taken from patent publication EP3892734B1, “SCREENING METHODS AND THERAPEUTIC APPLICATIONS BASED ON BACTERIAL MOTILITY INHIBITION” (Ludwig-Maximilians-Universität München, priority 2020, dated 2021).
